# Source: patent US20240350447A1, “DELIVERY METHODS FOR TREATING BRAIN AND CENTRAL NERVOUS SYSTEM DISEASES” (JENIVISION INC., priority 2021, published 2024)
# Tests used:
# [1] = Baseline endogenous levels of DHA, DHA-EE and JV-DE1; type: in vivo; conditions: undosed Bama minipigs
# Method: Endogenous levels were measured in the plasma, cerebrospinal fluid, ocular tissues (retina, optic nerve, ocular muscles), and brain. The endogenous levels DHA are not attributable to NIODP administration of DHA, DHA-EE, or JV-DE1. The baseline data collected in Table 4 was taken from the same lot of pigs, from the same vendor, as the information collected in Tables 5-7.
# [2] = Biodistribution of JV-DE1 after periorbital skin (NIODP) application to one eye; type: in vivo, Cynomolgus monkeys; conditions: 165.4 μg to OD via NIODP; for OS/OD retina ratio of JV-DE1: undosed/dosed retina
# Method: An experiment was performed to determine the biodisposition of 4,5-dihydro-N-[4-[[4-(1-methylethoxy) phenyl]methyl] phenyl]-1H-imadazol-2-amine (JV-DE1) following topical application to the periorbital skin that surrounds the anterior portion of the globe was performed.
# 165.4 μg of JV-DE1, a synthesized chemical compound, was applied to the right eye (OD) of Cynomolgus monkeys via NIODP. The monkeys were restrained from rubbing their eyes for 2 hours post dose and closely monitored by experimenter(s) to prevent cross-contamination of the untreated eye, yet JV-DE1 was quickly found in the undosed upper eyelid (733.4 ng/g), retina (5.2 ng/g) and Vitreous humor (1.03 ng/mL) as early as 0.5-hour post dose. Throughout the 3, 6, and 24-hour post dose points, low levels of JV-DE1 was detected in the retina at 5.5 ˜ 45.5 ng/g of the dosed eye, and 1.4 ˜ 6.3 ng/g of the undosed eye. The ratio of JV-DE1 in undoseD retina vs. the dosed retina was below 25.5% at all post dose time points tested.
# [3] = JV-DE1 in cornea and retina after single eye drop administration; type: in vivo, New Zealand Rabbits; conditions: 120 μg/eye eye drops to the right eye
# Excerpt: NIODP may be more efficient than topical eye drops for corneal delivery to treat corneal disorders, such as dry disease. […] Accordingly, NIODP may be used to deliver other compounds (such as DHA) to the cornea to treat corneal diseases, such as dry eye.
# [4] = JV-DE1 distribution after single periorbital skin administration; type: in vivo, Bama minipigs
# Method: In this example, 158.45 μg of 4,5-dihydro-N-[4-[[4-(1-methylethoxy) phenyl]methyl] phenyl]-1H-imadazol-2-amine (JV-DE1) was applied to the periorbital skin of a right eye of a Bama minipig. […] 1.37 ng/g of tissue and 1.35 ng/g of tissue of JV-DE1 was measured in the left and right halves of the brain, respectively. The average amount of JV-DE1 present in the brain 3 hours post-dosage was 1.36 ng/g.
# Given that the average Bama pig brain weighs around 60 g, the amount of JV-DE1 delivered to the brain can be estimated to be […]. Therefore, 0.051% of the 158.45 μg of JV-DE1 administered to the periorbital skin was delivered to the brain, […] than the deliverability of DHA via NIODP. As a comparison, only about 0.025% of DHA that is orally administered is delivered to the brain or CNS.
# [5] = 3 h, JV-DE1 158.45 μg to periorbital skin of right eye
smiles,measurement,setting,value
"CC(C)Oc1ccc(Cc2ccc(NC3=NCCN3)cc2)cc1 [JV-DE1, 4,5-dihydro-N-[4-[[4-(1-methylethoxy)phenyl]methyl]phenyl]-1H-imadazol-2-amine]",Baseline endogenous concentration in brain,[1],BLQ
same,Baseline endogenous concentration in cerebrospinal fluid,[1],BLQ
same,"Baseline endogenous concentration in eye tissue homogenate including (Retina, optic nerve, ocular muscle)",[1],BLQ
same,Baseline endogenous concentration in plasma,[1],BLQ
same,JV-DE1 in plasma,[2]; 0 h post dose,BLQ
same,JV-DE1 in plasma,[2]; 0.5 h post dose,0.131 ng/mL
same,JV-DE1 in plasma,[2]; 3 h post dose,0.21 ng/mL
same,JV-DE1 in plasma,[2]; 6 h post dose,0.26 ng/mL
same,JV-DE1 in plasma,[2]; 24 h post dose,BLQ
same,JV-DE1 in cornea,"[2]; OD (dosed eye), 0.5 h",9299.3 ng/g
same,JV-DE1 in retina,"[2]; OD (dosed eye), 0.5 h",39.6 ng/g
same,JV-DE1 in upper eyelid,"[2]; OD (dosed eye), 0.5 h",26535.4 ng/g
same,JV-DE1 in vitreous humor,"[2]; OD (dosed eye), 0.5 h",15.2 ng/mL
same,Retina/Upper eyelid ratio of JV-DE1,"[2]; OD (dosed eye), 0.5 h",0.1%
same,JV-DE1 in cornea,"[2]; OD (dosed eye), 3 h",16688.7 ng/g
same,JV-DE1 in retina,"[2]; OD (dosed eye), 3 h",27.9 ng/g
same,JV-DE1 in upper eyelid,"[2]; OD (dosed eye), 3 h",32454.7 ng/g
same,JV-DE1 in vitreous humor,"[2]; OD (dosed eye), 3 h",7.79 ng/mL
same,Retina/Upper eyelid ratio of JV-DE1,"[2]; OD (dosed eye), 3 h",0.1%
same,JV-DE1 in cornea,"[2]; OD (dosed eye), 6 h",23929.5 ng/g
same,JV-DE1 in retina,"[2]; OD (dosed eye), 6 h",45.5 ng/g
same,JV-DE1 in upper eyelid,"[2]; OD (dosed eye), 6 h",7945.6 ng/g
same,JV-DE1 in vitreous humor,"[2]; OD (dosed eye), 6 h",3.9 ng/mL
same,Retina/Upper eyelid ratio of JV-DE1,"[2]; OD (dosed eye), 6 h",0.6%
same,JV-DE1 in cornea,"[2]; OD (dosed eye), 24 h",1621.3 ng/g
same,JV-DE1 in retina,"[2]; OD (dosed eye), 24 h",5.5 ng/g
same,JV-DE1 in upper eyelid,"[2]; OD (dosed eye), 24 h",11597.8 ng/g
same,JV-DE1 in vitreous humor,"[2]; OD (dosed eye), 24 h",18.97 ng/mL
same,Retina/Upper eyelid ratio of JV-DE1,"[2]; OD (dosed eye), 24 h",0.0%
same,JV-DE1 in cornea,"[2]; OS (undosed eye), 0.5 h",0 ng/g
same,JV-DE1 in retina,"[2]; OS (undosed eye), 0.5 h",5.2 ng/g
same,JV-DE1 in upper eyelid,"[2]; OS (undosed eye), 0.5 h",733.4 ng/g
same,JV-DE1 in vitreous humor,"[2]; OS (undosed eye), 0.5 h",1.03 ng/mL
same,Retina/Upper eyelid ratio of JV-DE1,"[2]; OS (undosed eye), 0.5 h",0.7%
same,JV-DE1 in cornea,"[2]; OS (undosed eye), 3 h",0 ng/g
same,JV-DE1 in retina,"[2]; OS (undosed eye), 3 h",6.3 ng/g
same,JV-DE1 in upper eyelid,"[2]; OS (undosed eye), 3 h",1637 ng/g
same,JV-DE1 in vitreous humor,"[2]; OS (undosed eye), 3 h",1.85 ng/mL
same,Retina/Upper eyelid ratio of JV-DE1,"[2]; OS (undosed eye), 3 h",0.4%
same,JV-DE1 in cornea,"[2]; OS (undosed eye), 6 h",0 ng/g
same,JV-DE1 in retina,"[2]; OS (undosed eye), 6 h",4.8 ng/g
same,JV-DE1 in upper eyelid,"[2]; OS (undosed eye), 6 h",378.2 ng/g
same,JV-DE1 in vitreous humor,"[2]; OS (undosed eye), 6 h",0.57 ng/mL
same,Retina/Upper eyelid ratio of JV-DE1,"[2]; OS (undosed eye), 6 h",1.3%
same,JV-DE1 in cornea,"[2]; OS (undosed eye), 24 h",0 ng/g
same,JV-DE1 in retina,"[2]; OS (undosed eye), 24 h",1.4 ng/g
same,JV-DE1 in upper eyelid,"[2]; OS (undosed eye), 24 h",46.3 ng/g
same,JV-DE1 in vitreous humor,"[2]; OS (undosed eye), 24 h",0 ng/mL
same,Retina/Upper eyelid ratio of JV-DE1,"[2]; OS (undosed eye), 24 h",3.0%
same,Ratio of JV-DE1 in undosed retina vs. dosed retina,[2]; all post dose time points tested,below 25.5%
same,OS/OD retina ratio of JV-DE1,[2]; 0.5 h,13.1%
same,OS/OD retina ratio of JV-DE1,[2]; 3 h,22.6%
same,OS/OD retina ratio of JV-DE1,[2]; 6 h,10.5%
same,OS/OD retina ratio of JV-DE1,[2]; 24 h,25.5%
same,JV-DE1 in cornea,"[3]; OD (dosed eye), 0.5 h",12124.85 ng/g
same,JV-DE1 in retina,"[3]; OD (dosed eye), 0.5 h",92.03 ng/g
same,JV-DE1 in cornea,"[3]; OD (dosed eye), 2 h",5952.6 ng/g
same,JV-DE1 in retina,"[3]; OD (dosed eye), 2 h",49.13 ng/g
same,JV-DE1 in cornea,"[3]; OD (dosed eye), 6 h",5125.52 ng/g
same,JV-DE1 in retina,"[3]; OD (dosed eye), 6 h",58.87 ng/g
same,JV-DE1 in cornea,"[3]; OD (dosed eye), 24 h",542.19 ng/g
same,JV-DE1 in retina,"[3]; OD (dosed eye), 24 h",6.82 ng/g
same,JV-DE1 in cornea,"[3]; OS (undosed eye), 0.5 h",78.35 ng/g
same,JV-DE1 in retina,"[3]; OS (undosed eye), 0.5 h",7.35 ng/g
same,JV-DE1 in cornea,"[3]; OS (undosed eye), 2 h",28.92 ng/g
same,JV-DE1 in retina,"[3]; OS (undosed eye), 2 h",3.38 ng/g
same,JV-DE1 in cornea,"[3]; OS (undosed eye), 6 h",67.82 ng/g
same,JV-DE1 in retina,"[3]; OS (undosed eye), 6 h",1.42 ng/g
same,JV-DE1 in cornea,"[3]; OS (undosed eye), 24 h",11.03 ng/g
same,JV-DE1 in retina,"[3]; OS (undosed eye), 24 h",BLQ
same,Drug Concentration in Plasma,"[4]; 0 h, JV-DE1 158.45 μg to periorbital skin of right eye",BLQ
same,Drug Concentration in Plasma,"[4]; 1 h, JV-DE1 158.45 μg to periorbital skin of right eye",BLQ
same,Percentage of administered dose delivered to the brain,"[4]; 3 h, JV-DE1 158.45 μg periorbital, whole brain estimate",0.051%
same,% of administered dose: Cerebrospinal fluid,[4]; [5],0%
same,% of administered dose: brain-left,[4]; [5],0.0518%
same,% of administered dose: brain-right,[4]; [5],0.0513%
same,% of administered dose: inferior rectus muscle-left,[4]; [5],0.0061%
same,% of administered dose: inferior rectus muscle-right,[4]; [5],0.0170%
same,% of administered dose: lateral rectus muscle-left,[4]; [5],0.0063%
same,% of administered dose: lateral rectus muscle-right,[4]; [5],0.0175%
same,% of administered dose: medial rectus muscle-left,[4]; [5],0.0071%
same,% of administered dose: medial rectus muscle-right,[4]; [5],0.0260%
same,% of administered dose: optic nerve-left,[4]; [5],0.0006%
same,% of administered dose: optic nerve-right,[4]; [5],0.0047%
same,% of administered dose: retina-left,[4]; [5],0.0002%
same,% of administered dose: retina-right,[4]; [5],0.0003%
same,% of administered dose: superior rectus muscle-left,[4]; [5],0.0140%
same,% of administered dose: superior rectus muscle-right,[4]; [5],0.0237%
same,Average JV-DE1 present in the brain,[4]; [5],1.36 ng/g
same,Drug Concentration in Plasma,[4]; [5],BLQ
same,Drug Concentration in Tissue: Cerebrospinal fluid,[4]; [5],BLQ
same,Drug Concentration in Tissue: brain-left,[4]; [5],1.37 ng/g
same,Drug Concentration in Tissue: brain-right,[4]; [5],1.35 ng/g
same,Drug Concentration in Tissue: inferior rectus muscle-left,[4]; [5],57.27 ng/g
same,Drug Concentration in Tissue: inferior rectus muscle-right,[4]; [5],58.71 ng/g
same,Drug Concentration in Tissue: lateral rectus muscle-left,[4]; [5],53.65 ng/g
same,Drug Concentration in Tissue: lateral rectus muscle-right,[4]; [5],43.50 ng/g
same,Drug Concentration in Tissue: medial rectus muscle-left,[4]; [5],43.67 ng/g
same,Drug Concentration in Tissue: medial rectus muscle-right,[4]; [5],65.54 ng/g
same,Drug Concentration in Tissue: optic nerve-left,[4]; [5],11.94 ng/g
same,Drug Concentration in Tissue: optic nerve-right,[4]; [5],33.63 ng/g
same,Drug Concentration in Tissue: retina-left,[4]; [5],2.30 ng/g
same,Drug Concentration in Tissue: retina-right,[4]; [5],2.70 ng/g
same,Drug Concentration in Tissue: superior rectus muscle-left,[4]; [5],85.83 ng/g
same,Drug Concentration in Tissue: superior rectus muscle-right,[4]; [5],88.37 ng/g
same,Amount of JV-DE1 delivered to the brain (estimated),"[4]; 3 h, brain weight around 60 g, JV-DE1 158.45 μg periorbital",80.6 ng
